Literature values as cited in patent publication US20190282513A1, “COMPOUND FOR USE IN RELIEF OF PAIN AND METHOD TO PRODUCE THEREOF” (priority 2018, published 2019).

Columns and labels:
[1] = taken orally
[2] = compared with ibuprofen

In the case of `C=C(C)[C@@H]1CCC(C)=C[C@H]1c1c(O)cc(CCCCC)cc1O` [CBD, cannabidiol], the “anti-inflammatory analgesic effect in cancer-related pain” value is given as “effective anti-inflammatory analgesic” and the “treatment of chronic pain” value [1] is given as “effectively treated chronic pain”.

In the case of `C/C=C(/C=O)[C@@H](CC=O)CC(=O)OCCc1ccc(O)cc1` [oleocanthal], the anti-inflammatory properties [2] is listed as “anti-inflammatory properties similar to ibuprofen”.
